In test [1] the target is BRDT(D1) (Homo sapiens (Human), UniProt Q58F21). As to the kind of experiment: HTRF binding assay, BRDT (D1). As for the experimental part:
(§1) Homogeneous time-resolved fluorescence (HTRF) was used to detect the binding of the compound to BRD4 (D1 +D2) and BRDT (D1) proteins, and the AlphaScreen method was used to detect the binding of the compound to BRD2 (D1+D2) and BRD3 (D1+D2) proteins.
(§2) Compounds were screened in vitro, and each concentration of the compound was diluted to 10 different concentrations. Four proteins, BRD4 (D1 +D2), BRDT (D1), BRD2 (D1+D2) and BRD3 (D1+D2), were selected to determine their IC50 values (see Table 1).
BRDT(D1)(Active Motif, Cat.No.31450)
(§3) The test compound was dissolved in dimethylsulfoxide (DMSO) and stored at a concentration of 10 mM.
5. Homogeneous Time-Resolved Fluorescence Detection Steps:
1) All compounds were gradiently diluted on Echo plate according to the arrangement of the test plate. The final concentration of DMSO was 0.1%.
2) Compounds or DMSO was transferred to a 384-well assay plate by using Echo autosampler.
3) 2× concentration of protein and peptide mixture was added to the assay plate.
4) 2× concentration of the mixed detection solution was added to the assay plate and shaken for 30 seconds.
5) The plate was incubated at room temperature for 2 hours.
6) The fluorescence signal was read on Envision microplate reader (with excitation light wavelength at 340 nm and emission light wavelength at 615 nm and 665 nm).
(§4) The experimental data were entered into an Excel file, and the equation (1) was used to get the inhibitory rate. Inh %=(Max−Signal)/(Max−Min)*100 Equation (1)
(§5) The resultant data were entered into GraphPad software, and the IC50 value was obtained using equation (2). Y=Bottom+(Top−Bottom)/(1+10^((LogIC50−X)*Hill Slope)) Equation (2)
(§6) Wherein, Y-axis is the inhibition rate, while X-axis is the compound concentration.
A general note: TR-FRET usually uses a lanthanide donor and a delayed reading to cut background.

Test [2] has as its system CWR22RV1 cells. As to the kind of experiment: Inhibition of CWR22RV1 cell proliferation (CCK-8). The class given is cell-based. The conditions noted are these: Homo sapiens, CWR22Rv1, 144 h; cultured for 6 days, CCK-8; read-out: IC50 on CWR22RV1. On the procedure: Test Example 2 Biological Determination of the Inhibitory Effect of the Compound on CWR22RV1 Cell Proliferation
Experimental Materials: • CWR22RV1 cell line (Cell bank of Chinese Academy of Sciences, TCHu100) • FBS (Gibco, Cat. No. 10099-141) • 0.01M PBS (Biosharp, Cat. No. 162262) • RIPM1640 (Hyclone, Cat. No. 308090.01) • Penicillin-Streptomycin (Hyclone, Cat. No. SV30010) • Cell counting kit-8(Signalway Antibody, Cat. No. CP002) • DMSO (Sigma, Cat. No. D5879) • Centrifuge Tube, 15 ml (Excell Bio, Cat. No. CS015-0001) • Cell Culture Dish, (Excell Bio, Cat. No. CS016-0128) • 96-well cell culture cluster (Corning, Cat. No. 3599)
(1) CWR22RV1 cells were subcultured with cell culture medium, and well-growth cells were inoculated in 96-well plates, with 80 μL per well. The number of cells in each well was 1500, and the plate was cultured overnight in a 37° C., 5% CO2 cell incubator.
(2) The drug was prepared as a 30 mM stock solution using dimethyl sulfoxide (DMSO). before use, the stock solution was diluted 3 times with DMSO, and then diluted by a 3 times gradient to obtain 9 concentration gradients. The compound at each concentration was further diluted 200 times with the culture solution (to ensure that the DMSO concentration in the culture system was 0.1%), and each concentration was repeated 2 wells. 20 μL of the diluted compound was added to the cell culture wells (with final concentrations of 10 μM, 3.3 μM, 1.1 μM . . . ), and gently shaked to mix. In addition, three negative control wells containing only cells and three blank control wells containing only culture medium (6 wells each containing 20 μL DMSO 200-fold diluted with culture medium) were set.
(1) After being cultured for 6 days, 10 μL CCK-8 was added to each well, and the cells were further cultured in a 5% CO2 cell incubator at 37° C. for 2.5 hours.
(2) The absorbance (OD value) was measured at 450 nm with a multifunctional microplate reader.
(3) The data were analyzed with the Dose-response-inhibition equation in the software GraphPad Prism6, and IC50 values were obtained.

Test [3] deals with BRD2(1, 2) (Homo sapiens (Human), UniProt P25440). As to the kind of experiment: AlphaScreen binding assay, BRD2 (D1+D2). On the procedure:
as §1, §2, §3
(§7) 6. AlphaScreen detection step:
(§8) 1) Preparing 1-fold concentration of detection buffer
(§9) 1-fold concentration of detection buffer was prepared (modified HEPES buffer).
(§10) 2) Gradient dilution of compounds
(§11) The compound was transferred to the detection plate with an Echo autosampler for gradient dilution, so that the final concentration of dimethyl sulfoxide was 0.1%.
(§12) 3) Preparation of protein solution
(§13) The protein was dissolved in a 1-fold concentration of detection buffer.
(§14) 4) Preparation of substrate solution
(§15) The peptide was dissolved in 1-fold concentration of detection buffer to prepare a substrate solution.
(§16) 5) 5 μL protein solution was transferred to the assay plate, and 5 μL 1-fold concentration of detection buffer was placed in the negative control well.
(§17) 6) The plate was incubated at room temperature for 15 minutes.
(§18) 7) 5 μL substrate solution was added to each well to start the reaction.
(§19) 8) The plate was incubated at room temperature for 60 minutes.
(§20) 9) Acceptor and donor solutions were prepared in 1-fold concentration of assay buffer.
(§21) 15 μL acceptor and donor solution were added, respectively, and the plate was incubated at room temperature for 60 minutes without light.
(§22) 10) The end point was read in EnSpire and Alpha mode.
(§23) 11) The curve was fitted.
as §4, §5, §6
Background: Bead proximity is the source of the signal in Alpha formats.

Test [4] concerns the target BRD3(1, 2) (Homo sapiens (Human), UniProt Q15059). Briefly: AlphaScreen binding assay, BRD3 (D1+D2). On the procedure:
as §1, §2, §3, §7, §8, §9, §10, §11, §12, §13, §14, §15, §16, §17, §18, §19, §20, §21, §22, §23, §4, §5, §6

Test [5] deals with BRD4(1, 2) (Homo sapiens (Human), UniProt O60885). As to the kind of experiment: HTRF binding assay, BRD4 (D1+D2).
Text: The experimental data were entered into an Excel file, and the equation (1) was used to get the inhibitory rate. Inh %=(Max−Signal)/(Max−Min)*100 Equation (1) […]

BRD3(1, 2), sequence (Q15059 29-417): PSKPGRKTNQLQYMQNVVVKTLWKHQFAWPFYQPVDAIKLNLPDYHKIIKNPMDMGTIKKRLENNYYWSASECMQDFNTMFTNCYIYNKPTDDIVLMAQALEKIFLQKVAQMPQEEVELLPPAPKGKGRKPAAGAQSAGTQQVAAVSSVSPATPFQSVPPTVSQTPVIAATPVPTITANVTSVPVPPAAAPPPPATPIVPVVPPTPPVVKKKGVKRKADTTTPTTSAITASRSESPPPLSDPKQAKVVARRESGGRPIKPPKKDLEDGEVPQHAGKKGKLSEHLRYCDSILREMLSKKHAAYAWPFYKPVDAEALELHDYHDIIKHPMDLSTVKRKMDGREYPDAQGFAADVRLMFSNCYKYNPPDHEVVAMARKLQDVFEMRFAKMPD
BRD2(1, 2), sequence (P25440 65-459): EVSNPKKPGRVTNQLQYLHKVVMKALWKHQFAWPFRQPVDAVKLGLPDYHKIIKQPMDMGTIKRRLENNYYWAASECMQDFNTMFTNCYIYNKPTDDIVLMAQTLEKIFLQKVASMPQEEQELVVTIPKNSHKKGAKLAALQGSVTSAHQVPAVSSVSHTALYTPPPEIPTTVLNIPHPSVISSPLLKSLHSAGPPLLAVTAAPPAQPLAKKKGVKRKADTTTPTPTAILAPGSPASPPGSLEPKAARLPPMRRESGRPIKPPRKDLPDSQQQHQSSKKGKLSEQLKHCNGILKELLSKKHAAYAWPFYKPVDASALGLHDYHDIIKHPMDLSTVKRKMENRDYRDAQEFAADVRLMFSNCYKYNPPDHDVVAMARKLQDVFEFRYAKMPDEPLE

One may read the IC50 as the concentration that gives 50% inhibition. In the case of `CCOCc1nnc(C[C@@H]2N=C(c3ccc(Cl)cc3)c3c(sc(C)c3C)-n3c(C)nnc32)o1` [Compound 6, (S)-2-((4-(4-chlorophenyl)-2,3,9-trimethyl-6H-thieno[3,2-f][1,2,4]triazolo[4,3-a][1,4]diaza-6-yl)methyl)-5-(ethoxylmethyl)-1,3,4-oxodiazole], the IC50 in test [1] came out at 0.046 µM; in test [2], 0.061 µM; in test [3], 0.015 µM; in test [4], 0.02 µM.
In the same order, the values of `Cc1sc2c(c1C)C(c1ccc(Cl)cc1)=N[C@@H](Cc1nnc(C3CC3)o1)c1nnc(C)n1-2` [Compound 20, (S)-2-((4-(4-chlorophenyl)-2,3,9-trimethyl-6H-thieno[3,2-f][1,2,4]triazolo[4,3-a][1,4]diaza-6-yl)methyl)-5-cyclopropyl-1,3,4-oxodiazole] are 0.049 µM, 0.037 µM, 0.0101 µM and 0.02 µM.
Consider `CCc1nnc(C[C@@H]2N=C(c3ccc(Cl)cc3)c3c(sc(C)c3C)-n3c(C)nnc32)o1` [Compound 22, (S)-2-((4-(4-chlorophenyl)-2,3,9-trimethyl-6H-thieno[3,2-f][1,2,4]triazolo[4,3-a][1,4]diaza-6-yl)methyl)-5-ethyl-1,3,4-oxodiazole], for which the half-inhibitory concentration (IC50) in test [1] came to 0.046 µM; in test [2], 0.047 µM; in test [3] it was 0.0108 µM; in test [5], 0.025 µM; in test [4], 0.021 µM.
As for `Cc1sc2c(c1C)C(c1ccc(Cl)cc1)=N[C@@H](Cc1nnc(C(C)C)o1)c1nnc(C)n1-2` [Compound 19, (S)-2-((4-(4-chlorophenyl)-2,3,9-trimethyl-6H-thieno[3,2-f][1,2,4]triazolo[4,3-a][1,4]diaza-6-yl)methyl)-5-isopropyl-1,3,4-oxodiazole], the half-inhibitory concentration (IC50) amounted to 0.051 µM in test [1], 0.028 µM in test [2], 0.0083 µM in test [3] and 0.017 µM in test [4].

(Values after patent publication US11572371B2, “BRD4 inhibitor” (HINOVA PHARMACEUTICALS INC., priority 2017, dated 2023).)
